Assay results as given in patent US20070135509A1, “Indolone compounds useful to treat cognitive impairment” (priority 2005, published 2007).

Legend:
[1] = tested on: C57BL/6 mice; experiment: Object recognition (novel object recognition memory); format: in vivo; details: for Discrimination Index (DI), 24 hour object recognition: mean±SEM, vehicle -10.2±4
Excerpt: Object Recognition. […] This task relies on the natural curiosity of rodents to explore novel objects in their environments more than familiar ones. Obviously, for an object to be “familiar,” the animal must have attended to it before and remembered that experience.
During training, a mouse is presented with two identical, novel objects. Mice explore them equally by approaching, sniffing and crawling over them. During testing, the animal is presented with the training object and a second, novel one. Memory of the training object renders it familiar to the animal, and it then spends more time exploring the new novel object rather than the familiar one (Bourtchouladze t al., 2003). […] Consistent with these findings, rats with the PFC lesions show poor working memory when they are required to discriminate between familiar and novel objects (Mitchell, 1998).
(§1) Subjects. Young-adult (10-12 weeks old) C57B1/6 male mice (Taconic, N.Y.) were used. The mice were housed (5 mice) in standard laboratory cages and maintained on a 12:12 light-dark cycle. The experiments were always conducted during the light phase of the cycle. The day before the initiation of the experiment, mice were housed single in individual cages and maintained so until the end of the experiment. With the exception of testing times, the mice had liberal access to food and water. The experiments were conducted in accordance with Animal Welfare Assurance #A3280-01. Animals were maintained in accordance with the Animal Welfare Act and Department of Health and Human Services Guide.
Object Recognition Training and Testing. […]
Object Recognition Data Analysis. […] Types were reviewed by a blinded observer and the following behavioral parameters were determined: time of exploration of an each object; the total time of exploration of the objects; number of approaches to the objects; and time (latency) to first approach to an object. The discrimination index—memory score—was determined as described previously (Ennaceur et al., 1997, Bourtchouladze et al., 2003). […] All values in the text and figures are expressed as mean±SEM. […]

[2] = tested on: C57BL/6 mice; experiment: Contextual fear conditioning (contextual memory, freezing to context); format: in vivo; details: for 24 h contextual memory (freezing) / freezing to context 24 hr after training: mean±SEM; for 24 h contextual memory (freezing): controls 22.3±3.2%; for freezing to context 24 hr after training: controls 24.5±3.2%
Excerpt: Contextual Memory. Contextual memory is a form of Pavlovian fear conditioning in which a naïve mouse is placed into a novel chamber (context) containing distinct visual, olfactory and tactile cues. After a few seconds of acclimation, the mouse receives a brief, mild electric shock to its feet. From this negative experience, the mouse will remember for months that that chamber is dangerous. When placed back into the same context at some later time after training, the mouse's natural response to danger is to “freeze,” sitting stone still for many seconds. This is similar to what happens to humans when they experience fear. The percent of time during an observation period that the mouse spends frozen represents a quantitative measure (memory score) of its memory of the context.
as §1
Contextual Conditioning Training and Testing. To assess contextual memory, a standardized contextual fear conditioning task originally developed for evaluation of memory in cyclic AMP response element binding protein (“CREB”) knock-out mice was used (Bourtchouladze et al., 1994). On the training day, the mouse was placed into the conditioning chamber (Med Associates, Inc., VA) for 2 minutes before the onset of unconditioned stimulus (US), 0.5 mA, of 2 second foot shock. The US was repeated two times with a 1 min inter-trial interval between shocks. Training was performed by automated software package (Med Associates, Inc., VA). After the last training trial, the mice were left in the conditioning chamber for another 30 seconds and were then placed back in their home cages. 24 hours after training, the mouse was placed into the same training chamber and contextual memory was assessed by scoring freezing behavior (‘freezing’ serves as memory score). Freezing was defined as the complete lack of movement in intervals of 5 seconds (Kim et al., 1993; Phillips & LeDoux, 1992; Bourtchouladze et al., 1994; 1998; Abel et al., 1997). Total testing time lasted 3 minutes. After each experimental subject, the experimental apparatus was thoroughly cleaned with 75% ethanol, water, dried, and ventilated for a few minutes.
Contextual Conditioning Data Analysis. All experiments were designed and performed in a balanced fashion, meaning that (i) for each experimental condition (e.g. a specific dose-effect) we used an equal number of experimental and control mice; (ii) each experimental condition was replicated 2-3 independent times, and replicate days were added to generate final number of subjects. The proceeding of each experiment was filmed. In each experiment, the experimenter was unaware (blind) to the treatment of the subjects during training and testing. Data were analyzed by Student's unpaired t test using a software package (Statwiew 5.0.1; SAS Institute, Inc). All values in the text and figures are expressed as mean±SEM.
Drug Compound Administration. Compound 2 was freshly prepared from a stock solution (10 mg/ml DMSO), which was maintained at 4° C. Compound 2 was dissolved in a suspension of 5% DMSO and 95% CMC at 2% in water and administered intraperitoneally (I.P.) at doses 5 mg/kg; 10 mg/kg and 30 mg/kg 20 min before training or at 1 mg/kg and 30 mg/kg orally 60 min before training. Control animals received vehicle alone (5% DMSO and 95% CMC at 2% in water). […]

## O=C1C(=Nc2cccc(C(F)(F)F)c2)c2ccccc2N1c1ccccc1 [Compound 2, 1-PHENYL-3-[[3-(TRIFLUOROMETHYL)PHENYL]IMINO]-1,3-DIHYDRO-2H-INDOL-2-ONE]
[1]; 1 mg/kg and 5 mg/kg i.p. twenty (20) minutes before training, C57BL/6 mice
  Effect on object recognition memory in mice (FIG. 3): ameliorated long-term memory deficit
[1]; 1 mg/kg i.p. 20 minutes before 15-minute training, p<0.05
  Discrimination Index (DI), 24 hour object recognition: 5.1±6
[1]; 5 mg/kg i.p. 20 minutes before 15-minute training, p<0.0005
  Discrimination Index (DI), 24 hour object recognition: 18.8±6.6
[2]; 1 mg/kg oral 60 min before training, p<0.01
  24 h contextual memory (freezing): 36.4±3.9%
[2]; 5 mg/kg I.P. 20 min before training, p<0.05
  freezing to context 24 hr after training: 40.3±4.7%
[2]; 5 mg/kg, 10 mg/kg and 30 mg/kg i.p., 24 hours after training
  Effects on contextual memory in mice (FIG. 1): significantly facilitated freezing to context
[2]; 10 mg/kg I.P. 20 min before training, p<0.01
  freezing to context 24 hr after training: 51.4±9.1%
[2]; 30 mg/kg I.P. 20 min before training, p<0.001
  freezing to context 24 hr after training: 49.1±3.7%
[2]; 30 mg/kg oral 60 min before training, p<0.05
  24 h contextual memory (freezing): 34.1±4.3%
[2]; single dose of 1 mg/kg or 30 mg/kg orally, 24 hr
  Effects on contextual memory in mice (FIG. 2): significantly enhanced 24 hr contextual memory
